Results as given in ChEMBL document CHEMBL3885861, “Open TG-GATES”.

Species on record: Rattus norvegicus
Assay: Open TG-GATES - Regimen: Daily Repeat
Format: toxicity, organism-based, Sprague-Dawley
Design: regimen Daily Repeat, gender Male, age 6 weeks
Details: in vivo, po, route gavage; for Eos / Fbg / Hb / Ht / Lym / MCH / MCHC / MCV / Mono / PT / Plat / RBC / Ret / WBC / APTT / Bas: tissue Blood; for KIDNEY_L / KIDNEY_R / KIDNEY_TOTAL: tissue Kidney; for ALP / ALT / AST / BUN / CRE / DBIL / GLC / IP / K / LDH / Na / PL / RALB / TBIL / TC / TG / TP / gamma-GTP / Ca: tissue Plasma
[1] = 60 mg/kg, 72 h, dose level Middle, time 3 day
[2] = 60 mg/kg, […], dose level Middle, time 7 day
[3] = 60 mg/kg, […], dose level Middle, time 14 day
[4] = 60 mg/kg, […], dose level Middle, time 28 day
[5] = 200 mg/kg, 72 h, dose level High, time 3 day
[6] = 200 mg/kg, […], dose level High, time 7 day
[7] = 200 mg/kg, […], dose level High, time 14 day
[8] = 200 mg/kg, […], dose level High, time 28 day

## CC(C)Cc1ccc(C(C)C(=O)O)cc1 (stereo not given) [IBUPROFEN]
[1]
  Eos: 0.8%
  Fbg: 340.8 mg/dL
  Hb: 13.2 g/dL
  Ht: 39%
  Lym: 73.8%
  MCH: 21 pg
  MCHC: 33.9%
  MCV: 61.9 fL
  Mono: 2.6%
  PT: 16 s
  Plat: 115.2 x10_4/uL
  RBC: 629.8 x10_4/ul
  Ret: 6.7%
  WBC: 115.1 x10_2/uL
  KIDNEY_L: 0.9 g
  KIDNEY_R: 1 g
  KIDNEY_TOTAL: 1.9 g
  ALP: 1603.6 IU/L
  ALT: 45 IU/L
  AST: 80.4 IU/L
  BUN: 17.8 mg/dL
  CRE: 0.2 mg/dL
  DBIL: 0 mg/dL
  GLC: 184.6 mg/dL
  IP: 7.2 mg/dL
  K: 4.4 meq/L
  LDH: 237 IU/L
  Na: 141.4 meq/L
  PL: 138.4 mg/dL
  RALB: 2.9 g/dL
  TBIL: 0.002 mg/dL
  TC: 73.4 mg/dL
  TG: 130.8 mg/dL
  TP: 5.4 g/dL
  gamma-GTP: 1.4 IU/L
[2]
  TERMINAL_BW: 253.3 g
  APTT: 20.6 s
  Bas: 0%
  Eos: 1%
  Fbg: 313.2 mg/dL
  Hb: 12.9 g/dL
  Ht: 37.4%
  Lym: 68.6%
  MCH: 21.3 pg
  MCHC: 34.4%
  MCV: 62 fL
  Mono: 3%
  PT: 15.8 s
  Plat: 132.1 x10_4/uL
  RBC: 605 x10_4/ul
  Ret: 8.2%
  WBC: 133.5 x10_2/uL
  KIDNEY_L: 1.1 g
  KIDNEY_R: 1.1 g
  KIDNEY_TOTAL: 2.1 g
  ALP: 1376 IU/L
  ALT: 44.2 IU/L
  AST: 78 IU/L
  BUN: 18.6 mg/dL
  CRE: 0.2 mg/dL
  DBIL: 0 mg/dL
  GLC: 188.4 mg/dL
  IP: 7.3 mg/dL
  K: 4 meq/L
  LDH: 187.6 IU/L
  Na: 139.2 meq/L
  PL: 154.4 mg/dL
  RALB: 3 g/dL
  TBIL: 0.004 mg/dL
  TC: 75.6 mg/dL
  TG: 136.4 mg/dL
  TP: 5.4 g/dL
  gamma-GTP: 2.4 IU/L
[3]
  TERMINAL_BW: 297.5 g
  APTT: 23.6 s
  Bas: 0%
  Eos: 1%
  Fbg: 326.2 mg/dL
  Ht: 41%
  Lym: 75.8%
  MCHC: 33.9%
  MCV: 61.4 fL
  Mono: 2.8%
  PT: 16.1 s
  RBC: 670.4 x10_4/ul
  Ret: 5.7%
  WBC: 126.7 x10_2/uL
  KIDNEY_L: 1.2 g
  KIDNEY_R: 1.2 g
  KIDNEY_TOTAL: 2.4 g
  ALP: 1198.6 IU/L
  ALT: 41.2 IU/L
  AST: 69.2 IU/L
  CRE: 0.2 mg/dL
  DBIL: 0 mg/dL
  GLC: 189.4 mg/dL
  IP: 8.1 mg/dL
  K: 4.1 meq/L
  LDH: 147.6 IU/L
  Na: 141 meq/L
  PL: 154 mg/dL
  RALB: 3 g/dL
  TBIL: 0.004 mg/dL
  TC: 76.6 mg/dL
  TG: 139 mg/dL
  TP: 5.6 g/dL
  gamma-GTP: 2.2 IU/L
[4]
  TERMINAL_BW: 379.8 g
  APTT: 24.2 s
  Bas: 0%
  Eos: 1.8%
  Fbg: 333 mg/dL
  Hb: 14.8 g/dL
  Ht: 43.5%
  Lym: 75.2%
  MCH: 19 pg
  MCHC: 34%
  MCV: 56 fL
  Mono: 1.8%
  Plat: 102 x10_4/uL
  RBC: 777.2 x10_4/ul
  Ret: 2.8%
  WBC: 93.9 x10_2/uL
  KIDNEY_L: 1.3 g
  KIDNEY_R: 1.4 g
  KIDNEY_TOTAL: 2.7 g
  ALP: 1187.4 IU/L
  ALT: 40.8 IU/L
  AST: 67.8 IU/L
  BUN: 20 mg/dL
  CRE: 0.2 mg/dL
  Ca: 10.4 mg/dL
  DBIL: 0 mg/dL
  GLC: 186.2 mg/dL
  IP: 6.7 mg/dL
  K: 3.9 meq/L
  LDH: 150.6 IU/L
  Na: 142.4 meq/L
  PL: 147 mg/dL
  RALB: 3.2 g/dL
  TBIL: 0.002 mg/dL
  TC: 71.8 mg/dL
  TG: 139 mg/dL
  TP: 6 g/dL
  gamma-GTP: 2.6 IU/L
[5]
  TERMINAL_BW: 206.3 g
  APTT: 19.6 s
  Bas: 0%
  Eos: 1%
  Fbg: 465.4 mg/dL
  Hb: 9.9 g/dL
  Ht: 29.9%
  Lym: 66.2%
  MCH: 21.1 pg
  MCHC: 33.2%
  MCV: 63.7 fL
  Mono: 4.8%
  PT: 15.1 s
  Plat: 111.5 x10_4/uL
  RBC: 472.2 x10_4/ul
  Ret: 11%
  WBC: 175.1 x10_2/uL
  KIDNEY_L: 0.9 g
  KIDNEY_R: 1 g
  KIDNEY_TOTAL: 1.9 g
  ALP: 841.6 IU/L
  ALT: 34.4 IU/L
  AST: 59.4 IU/L
  BUN: 16.2 mg/dL
  CRE: 0.1 mg/dL
  DBIL: 0 mg/dL
  GLC: 171 mg/dL
  IP: 7.9 mg/dL
  K: 4.5 meq/L
  LDH: 122.6 IU/L
  Na: 140.8 meq/L
  PL: 147.2 mg/dL
  RALB: 2.4 g/dL
  TBIL: 0.004 mg/dL
  TC: 86 mg/dL
  TG: 116.2 mg/dL
  TP: 4.8 g/dL
  gamma-GTP: 1.6 IU/L
[6]
  TERMINAL_BW: 228.5 g
  APTT: 20.3 s
  Bas: 0%
  Eos: 1.4%
  Fbg: 360.2 mg/dL
  Hb: 9.5 g/dL
  Ht: 29.8%
  Lym: 65.6%
  MCH: 21.1 pg
  MCV: 66.4 fL
  Mono: 3.6%
  PT: 16.4 s
  Plat: 198 x10_4/uL
  RBC: 450 x10_4/ul
  Ret: 20.9%
  WBC: 213.7 x10_2/uL
  KIDNEY_L: 1 g
  KIDNEY_R: 1 g
  KIDNEY_TOTAL: 2.1 g
  ALP: 793 IU/L
  AST: 63 IU/L
  BUN: 18.6 mg/dL
  CRE: 0.2 mg/dL
  DBIL: 0 mg/dL
  GLC: 179.6 mg/dL
  IP: 7.8 mg/dL
  K: 4.3 meq/L
  LDH: 145 IU/L
  Na: 140.4 meq/L
  PL: 161.6 mg/dL
  RALB: 2.7 g/dL
  TBIL: 0.002 mg/dL
  TC: 84 mg/dL
  TG: 148.6 mg/dL
  TP: 5.1 g/dL
  gamma-GTP: 2 IU/L
[7]
  TERMINAL_BW: 217 g
  APTT: 18.9 s
  Bas: 0%
  Eos: 1.2%
  Fbg: 455.2 mg/dL
  Hb: 6.4 g/dL
  Ht: 23.2%
  Lym: 56.6%
  MCH: 17.8 pg
  MCHC: 27.3%
  MCV: 65.3 fL
  Mono: 5%
  PT: 16.5 s
  Plat: 274.3 x10_4/uL
  RBC: 354.6 x10_4/ul
  Ret: 36.9%
  WBC: 225.9 x10_2/uL
  KIDNEY_L: 1 g
  KIDNEY_R: 1.1 g
  KIDNEY_TOTAL: 2.1 g
  ALP: 502.2 IU/L
  ALT: 25.6 IU/L
  AST: 55.2 IU/L
  BUN: 15.4 mg/dL
  CRE: 0.2 mg/dL
  Ca: 10.2 mg/dL
  DBIL: 0 mg/dL
  GLC: 159.6 mg/dL
  IP: 8.4 mg/dL
  K: 4.4 meq/L
  LDH: 145.8 IU/L
  Na: 140.4 meq/L
  PL: 167.4 mg/dL
  RALB: 2.2 g/dL
  TBIL: 0.004 mg/dL
  TC: 81.2 mg/dL
  TG: 239.2 mg/dL
  TP: 4.8 g/dL
  gamma-GTP: 2.6 IU/L
[8]
  TERMINAL_BW: 319 g
  APTT: 19.1 s
  Bas: 0%
  Eos: 2.2%
  Fbg: 434.8 mg/dL
  Hb: 7.6 g/dL
  Lym: 48.8%
  MCH: 17.5 pg
  MCHC: 28%
  MCV: 62.7 fL
  Mono: 3%
  PT: 16.6 s
  Plat: 195.7 x10_4/uL
  RBC: 433.5 x10_4/ul
  WBC: 190.5 x10_2/uL
  KIDNEY_L: 1.4 g
  KIDNEY_R: 1.4 g
  KIDNEY_TOTAL: 2.8 g
  ALP: 493.2 IU/L
  ALT: 30 IU/L
  AST: 64 IU/L
  BUN: 18 mg/dL
  CRE: 0.2 mg/dL
  Ca: 10.4 mg/dL
  DBIL: 0 mg/dL
  GLC: 164.2 mg/dL
  IP: 7 mg/dL
  K: 4.2 meq/L
  LDH: 158.8 IU/L
  Na: 141.2 meq/L
  PL: 191.5 mg/dL
  RALB: 2.4 g/dL
  TBIL: 0 mg/dL
  TC: 95 mg/dL
  TG: 283.8 mg/dL
  TP: 5.1 g/dL
  gamma-GTP: 4.2 IU/L
